From PMC11131246, “Molecular determinants for brain targeting by peptides: a meta-analysis approach with experimental validation” (Fluids and Barriers of the CNS, 2024)
Read-outs that look alike come from different tables or passages of the source. Residues, ends and D or L forms follow the SMILES beside them. No end group written: not given here. *: point of attachment. NODAGA = O=C(O)CN1CCN(CC(=O)O)CCN(C(CCC(=O)*)C(=O)O)CC1

Tests used:
[1] = Biodistribution of 67Ga-radiolabeled peptides; parameters: species or system mouse; conditions: female, in vivo, iv, 100 uCi, total radioactivity, mean ± SD, n = 3; for tissue uptake at 1 h / tissue uptake at 2 min: CD1, mouse, i.v. tail vein; for tissue uptake at 2 min: 2 min post injection
Method: All animal experiments were performed in compliance with national and EU legislation for good practices on laboratory animal science. The animals were housed in a temperature and humidity-controlled environment with a 12 h light/12 h dark schedule. Biodistribution of radiolabeled peptides was performed on 7 weeks old CD1 female mice.
Animals were intravenously injected into the tail vein with 100 µL of a 25 µM saline solution of the ^67Ga-peptide with a radioactivity around 100 µCi. The mice were euthanized by cervical dislocation at 2 min and 1 h after injection. The dose administered and the radioactivity in the euthanized animals was measured using a dose calibrator (Carpintec CRC-15W, Ramsey, USA). The difference between the radioactivity in the injected and the euthanized animals was assumed to be due to excretion. Brain and tissues of interest without previous perfusion were dissected, washed, and weighed, and their radioactivity was measured using a γ counter (Hidex AMG, Hidex, Turku, Finland). The uptake in the brain and tissues of interest was calculated and expressed as a percentage of injected radioactivity dose per gram of tissue (% ID/g).

[2] = Analytical RP-HPLC retention time (used as indication of hydrophobicity); format: physicochemical; conditions: separate analytical RP-HPLC coupled to a γ-detector; 67Ga-NODA-GA labelled peptides
[3] = Cytotoxicity, CellTiter-Blue cell viability assay; format: cell-based; conditions: human
Method: (§1) Peptide cytotoxicity was determined using the CellTiter-Blue® cell viability assay, following a described protocol. Briefly, all cell lines were carefully harvested with trypsin–EDTA and seeded 10.000–20.000 cells/100 μL into 96-well clear flat-bottomed polystyrene plates (Corning, USA) for 24 h. After medium removal, cells were washed twice with 1X PBS, and 100 µL of previously diluted peptides (range from 0.05–100.0 µM) in the respective medium were added to cells. Then, after 24 h, cells were washed twice with 1X PBS and 20 µL of CellTiter-Blue® Reagent (diluted in 100 µL of medium) was added to each well and incubated for 3 h in culturing conditions. The fluorescence intensity was measured using Varioskan™ LUX multimode microplate reader.
(§2) IC50 values were determined using GraphPad Prism 7.0 software using a log(inhibitor) versus normalized response. Experiments were performed in triplicates on different days using three independently grown cell cultures.

[4] = Cytotoxicity, CellTiter-Blue cell viability assay; format: cell-based; conditions: human; remark: listed apart in the source
Method: as §1, §2

[5] = Cytotoxicity, CellTiter-Blue cell viability assay; format: cell-based; conditions: human; remark: listed apart in the source
Method: as §1, §2

[6] = Cytotoxicity, CellTiter-Blue cell viability assay; format: cell-based; conditions: human; remark: listed apart in the source
Method: as §1, §2

[7] = Cytotoxicity, CellTiter-Blue cell viability assay; format: cell-based; conditions: human; remark: listed apart in the source
Method: as §1, §2

HBEC-5i cells = assay: Translocation across in vitro BBB model (HBEC-5i monolayer, transwell); format: in vitro ADME, human; conditions: HBEC-5i monolayer on AF-coated PET transwell inserts (1.0 µm pores), 8 days, CF-peptide 5.0 µM in DMEM:F12 without phenol red added to apical side, 24 h, fluorescence, plate reader, mean ± SD, triplicates of three independent experiments
Method: Throughout 8 days, medium was changed every other day. On the day of the experiment, cells were washed twice with 1X PBS (137.0 mM NaCl, 2.7 mM KCl, 10.0 mM Na2HPO4, and 1.8 mM KH2PO4), and once with DMEM:F12 without phenol red. Then, CF-peptides (5.0 μM, in DMEM:F12 without phenol red) were added to the apical side of the in vitro BBB model and incubated for 24 h. Finally, samples from the apical and basolateral side were collected and fluorescence intensity analyzed using a Varioskan^TM LUX multimode microplate reader (Thermo Fisher, Spain). […] Experiments were performed in triplicates on different days using three independently grown cell cultures. Seeking experimental support for our hypothesis, we have synthesized and tested in vitro the activity of ten peptides (Table 1), selected among the 14 BBBpS entries by their lowest S score in an OLS ranking.

[8] = read-out: Cytotoxicity IC50 HBEC-5i
[9] = CellTiter-Blue, peptides 0.05–100.0 µM, 24 h, triplicates, three independent cultures, read-out: Cytotoxicity IC50 HeLa
[10] = CellTiter-Blue, peptides 0.05–100.0 µM, 24 h, triplicates, three independent cultures, read-out: Cytotoxicity IC50 Hs68
[11] = CellTiter-Blue, peptides 0.05–100.0 µM, 24 h, triplicates, three independent cultures
[12] = CellTiter-Blue, peptides 0.05–100.0 µM, 24 h, triplicates, three independent cultures, read-out: Cytotoxicity IC50 HEK-293

CC[C@H](C)[C@H](NC(=O)CNC(=O)[C@H](CCCNC(=N)N)NC(=O)[C@H](Cc1ccc(O)cc1)NC(=O)[C@H](CS)NC(=O)[C@@H](NC(=O)[C@H](CCCNC(=N)N)NC(=O)[C@H](Cc1ccccc1)NC(=O)[C@H](CS)NC(=O)[C@H](Cc1c[nH]c2ccccc12)NC(=O)[C@H](CCCCN)NC(=O)CCC(C(=O)O)N1CCN(CC(=O)O)CCN(CC(=O)O)CC1)C(C)C)C(=O)N[C@@H](CS)C(=O)N[C@@H](Cc1ccc(O)cc1)C(=O)N[C@@H](CCCNC(=N)N)C(=O)N[C@@H](CCCNC(=N)N)C(=O)N[C@@H](CS)C(=O)N[C@@H](CCCNC(=N)N)C(N)=O (stereo partly shown) [67Ga-non-BBBpS_2, metal not drawn] ({NODAGA}-KWCFRVCYRGICYRRCR-NH2)
tissue uptake at 1 h ([1]; blood, 1 h post injection, CD1 female mice, 100 µL of 25 µM 67Ga-peptide, γ counter, read-out: Tissue distribution, Blood): 0.9 ± 0.6 %ID/g
tissue uptake at 2 min ([1]; bone, CD1 mice, read-out: Tissue distribution, Bone): 3.7 ± 0.5 %ID/g
tissue uptake at 1 h ([1]; bone, 1 h post injection, CD1 mice, read-out: Tissue distribution, Bone): 1.6 ± 0.1 %ID/g
tissue uptake at 1 h ([1]; brain without perfusion, 1 h post injection, CD1 female mice, γ counter, read-out: Tissue distribution, Brain (brain uptake)): 0.13 ± 0.03 %ID/g
tissue uptake at 2 min ([1]; heart, CD1 mice, read-out: Tissue distribution, Heart): 6 ± 0.8 %ID/g
tissue uptake at 1 h ([1]; heart, 1 h post injection, CD1 mice, read-out: Tissue distribution, Heart): 1.7 ± 0.1 %ID/g
tissue uptake at 2 min ([1]; intestine, CD1 mice, read-out: Tissue distribution, Intestine): 2.7 ± 0.7 %ID/g
tissue uptake at 1 h ([1]; intestine, 1 h post injection, CD1 mice, read-out: Tissue distribution, Intestine): 1.6 ± 0.5 %ID/g
tissue uptake at 2 min ([1]; kidney, CD1 mice, read-out: Tissue distribution, Kidney): 19.9 ± 0.4 %ID/g
tissue uptake at 1 h ([1]; kidney, 1 h post injection, CD1 mice, read-out: Tissue distribution, Kidney): 5.4 ± 0.8 %ID/g
tissue uptake at 2 min ([1]; liver, CD1 mice, read-out: Tissue distribution, Liver): 19.8 ± 0.7 %ID/g
tissue uptake at 1 h ([1]; liver, 1 h post injection, CD1 mice, read-out: Tissue distribution, Liver): 22.8 ± 10.1 %ID/g
tissue uptake at 2 min ([1]; lung, CD1 mice, read-out: Tissue distribution, Lung): 7.6 ± 1.5 %ID/g
tissue uptake at 1 h ([1]; lung, 1 h post injection, CD1 mice, read-out: Tissue distribution, Lung): 2.4 ± 0.7 %ID/g
tissue uptake at 2 min ([1]; muscle, CD1 mice, read-out: Tissue distribution, Muscle): 1.8 ± 0.5 %ID/g
tissue uptake at 1 h ([1]; muscle, 1 h post injection, CD1 mice, read-out: Tissue distribution, Muscle): 1.2 ± 0.4 %ID/g
tissue uptake at 2 min ([1]; spleen, CD1 mice, read-out: Tissue distribution, Spleen): 5.6 ± 0.4 %ID/g
tissue uptake at 1 h ([1]; spleen, 1 h post injection, CD1 mice, read-out: Tissue distribution, Spleen): 3.7 ± 1.8 %ID/g
tissue uptake at 2 min ([1]; stomach, CD1 mice, read-out: Tissue distribution, Stomach): 2.1 ± 0.6 %ID/g
tissue uptake at 1 h ([1]; stomach, 1 h post injection, CD1 mice, read-out: Tissue distribution, Stomach): 1.7 ± 0.6 %ID/g
excretion (% injected dose) ([1]; mouse, 1 h post injection, difference between radioactivity injected and in the euthanized animal, CD1 mice): 13.5 ± 5.1 %ID
HPLC tR [2]: 12.99 min

CSCC[C@H](NC(=O)[C@H](CC(C)C)NC(=O)CNC(=O)[C@H](Cc1ccccc1)NC(=O)[C@H](Cc1ccccc1)NC(=O)[C@H](CCC(N)=O)NC(=O)[C@H](CCC(N)=O)NC(=O)[C@@H]1CCCN1C(=O)[C@H](CCCCN)NC(=O)[C@@H]1CCCN1C(=O)[C@@H](N)CCCN=C(N)N)C(N)=O [BBBpS_10]
IC50 at 24 h [3]: > 100 µM
IC50 at 24 h [4]: > 100 µM
IC50 at 24 h [5]: > 100 µM
IC50 at 24 h [6]: > 100 µM
IC50 at 24 h [7]: > 100 µM

AGILKRW [PepH3, well-tested BBBpS standard, reference compound]
Translocation (%) HBEC-5i (HBEC-5i cells): 54.0 ± 2.2%

APWHLSSQYSRT-NH2 [BBBpS_4]
IC50 at 24 h [3]: > 100 µM
IC50 at 24 h [4]: > 100 µM
IC50 at 24 h [5]: > 100 µM
IC50 at 24 h [6]: > 100 µM
IC50 at 24 h [7]: > 100 µM

EEGRLYMRYYSPTTRRYG-NH2 [BBBpS_3]
Translocation (%) HBEC-5i (HBEC-5i cells): 35.7 ± 3.6%
IC50 at 24 h [3, 8]: > 100 µM
IC50 at 24 h [4, 9]: > 100 µM
IC50 at 24 h [5, 10]: > 100 µM
IC50 at 24 h [6, 11]: > 100 µM
IC50 at 24 h [7, 12]: > 100 µM

HIQLSPFSQSWR-NH2 [BBBpS_5]
IC50 at 24 h [3]: > 100 µM
IC50 at 24 h [4]: > 100 µM
IC50 at 24 h [5]: > 100 µM
IC50 at 24 h [6]: > 100 µM
IC50 at 24 h [7]: > 100 µM

KKKKQPPKPKKPKTQEKKKKQPPKPKR-NH2 [non-BBBpS_1]
Translocation (%) HBEC-5i (HBEC-5i cells): 20.0 ± 3.5%
IC50 at 24 h [3, 8]: > 100 µM
IC50 at 24 h [4, 9]: > 100 µM
IC50 at 24 h [5, 10]: > 100 µM
IC50 at 24 h [6, 11]: > 100 µM
IC50 at 24 h [7, 12]: > 100 µM

KYKGAIIGNIK-NH2 [BBBpS_1]
IC50 at 24 h [3]: > 100 µM
IC50 at 24 h [4]: > 100 µM
IC50 at 24 h [5]: > 100 µM
IC50 at 24 h [6]: > 100 µM
IC50 at 24 h [7]: > 100 µM

KYRSGAITIGY-NH2 [BBBpS_2]
IC50 at 24 h [3]: > 100 µM
IC50 at 24 h [4]: > 100 µM
IC50 at 24 h [5]: > 100 µM
IC50 at 24 h [6]: > 100 µM
IC50 at 24 h [7]: > 100 µM

LKTLTETLKELTKTLTEL-NH2 [BBBpS_7]
IC50 at 24 h [3]: > 100 µM
IC50 at 24 h [4]: > 100 µM
IC50 at 24 h [5]: > 100 µM
IC50 at 24 h [6]: > 100 µM
IC50 at 24 h [7]: > 100 µM

NRPDSAQFWLHH-NH2 [BBBpS_9]
IC50 at 24 h [3]: > 100 µM
IC50 at 24 h [4]: > 100 µM
IC50 at 24 h [5]: > 100 µM
IC50 at 24 h [6]: > 100 µM
IC50 at 24 h [7]: > 100 µM

YDEEGGGE-NH2 [non-BBBpS_3]
IC50 at 24 h [3]: > 100 µM
IC50 at 24 h [4]: > 100 µM
IC50 at 24 h [5]: > 100 µM
IC50 at 24 h [6]: > 100 µM
IC50 at 24 h [7]: > 100 µM

YKEATSTFTNITYRGT-NH2 [BBBpS_8]
IC50 at 24 h [3]: > 100 µM
IC50 at 24 h [4]: > 100 µM
IC50 at 24 h [5]: > 100 µM
IC50 at 24 h [6]: > 100 µM
IC50 at 24 h [7]: > 100 µM

YTQDFNKFHTFPQTAIGVGAP-NH2 [BBBpS_6]
IC50 at 24 h [3]: > 100 µM
IC50 at 24 h [4]: > 100 µM
IC50 at 24 h [5]: > 100 µM
IC50 at 24 h [6]: > 100 µM
IC50 at 24 h [7]: > 100 µM
